Laboratory results taken from patent US20150342901A1, “COMPOSITION COMPRISING NATURAL POLYPHENOL COMPOUNDS, AND COMPOSITION FOR ORAL ADMINISTRATION COMPRISING SAME” (SAMSUNG FINE CHEMICALS CO., LTD., priority 2012, published 2015).
≈ marks a conversion by molar mass, not a printed value.

Experiment: Solubility of poorly water-soluble natural polyphenolic compound (PSNPPC) in water
Type: physicochemical
Settings: for solubility: PSNPPC alone, solubility = amount (mg) of solute that dissolves in 1 mL of water at 37° C.
Protocol: In the present specification. “solubility” refers to an amount (mg) of a solute (PSNPPC) that dissolves in 1 mL of water at 37° C., which is similar to a human body temperature.
Solubility of 3 types of poorly water-soluble natural polyphenolic compounds (PSNPPC) (a product of Naturex SA of France) were measured, and the results thereof are shown in Table 1.

| solubility | Solubility (@37° C.) | Compound |
| --- | --- | --- |
| 4 µg/mL (≈ 10.9 µM) | – | COc1cc(/C=C/C(=O)CC(=O)/C=C/c2ccc(O)c(OC)c2)ccc1O [Curcumin, curcumin] |
| 87 µg/mL (≈ 381 µM) | – | Oc1ccc(C=Cc2cc(O)cc(O)c2)cc1 [Resveratrol, resveratrol] |
| – | 0.008 | silymarin |
